Source: patent publication US20110144156A1, “A3 ADENOSINE RECEPTOR ALLOSTERIC MODULATORS” (UNIVERSITEIT LEIDEN, priority 2008, published 2011)

Assays:
human A3ARs [1] = molecular target: T1, human A3ARs (Homo sapiens, UniProt P0DMS8); assay: Competitive binding assay to the human A3 AR with [125I]I-AB-MECA; details: 1 h, 10 μM test compound; [125I]I-AB-MECA radioligand; CHO cell membranes expressing human A3AR; brackets = individual assays; read-out: % displacement at 10 μM (hA3AR)
T1 construct: expressed in transfected cells; host or cells: CHO (Chinese hamster ovary) cells; membrane preparation
T1 sequence (P0DMS8 1-318): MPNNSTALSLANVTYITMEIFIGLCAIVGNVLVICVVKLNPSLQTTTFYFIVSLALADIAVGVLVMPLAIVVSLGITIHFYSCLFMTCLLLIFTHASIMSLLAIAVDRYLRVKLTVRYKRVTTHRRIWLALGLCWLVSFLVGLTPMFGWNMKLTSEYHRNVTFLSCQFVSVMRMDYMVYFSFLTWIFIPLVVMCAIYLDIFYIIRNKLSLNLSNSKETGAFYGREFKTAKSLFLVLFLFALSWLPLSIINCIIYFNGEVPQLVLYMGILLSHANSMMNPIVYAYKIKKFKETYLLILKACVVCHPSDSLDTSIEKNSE
Description: (§1) CHO (Chinese hamster ovary) cells expressing the recombinant human A3 receptors were cultured in DMEM and F12 (1:1) supplemented with 10% fetal bovine serum, 100 units/ml penicillin, 100 μg/ml streptomycin and 2 μmol/ml glutamine. Cells were harvested by trypsinization. After homogenization and suspension, cells were centrifuged at 500 g for 10 min, and the pellet was re-suspended in 50 mM Tris.HCl buffer (pH 7.4) containing 10 mM MgCl2. The suspension was homogenized with an electric homogenizer for 10 sec, and was then re-centrifuged at 20,000 g for […] at 4° C. The resultant pellets were resuspended in buffer in the presence of 3 Units/mL adenosine deaminase, and the suspension was stored at −80° C. until the binding experiments. The protein concentration was measured using the Bradford assay.
Each tube in the competitive binding assay contained 100 μl membrane suspension (20 μg protein), 50 μl [^125I]I-AB-MECA (0.5 nM), and 50 μl of increasing concentrations of the test modulators in Tris.HCl buffer (50 mM, pH 8.0) containing 10 mM MgCl2, 1 mM EDTA. Nonspecific binding was determined using 10 μM of 5′-N-ethylcarboxamidoadenosine in the buffer. The mixtures were incubated at 25° C. for 60 min. Binding reactions were terminated by filtration through Whatman GF/B filters under reduced pressure using a MT-24 cell harvester (Brandell, Gaithersburgh, Md., USA). Filters were washed three times with 9 mL ice-cold buffer. Radioactivity was determined in a Beckman 5500B γ-counter.
Binding parameters were calculated using Prism 5.0 software (GraphPAD, San Diego, Calif., USA). IC50 values obtained from competition curves were converted to Ki values using the Cheng-Prusoff equation. Data were expressed as mean±standard error.

human A3ARs [2] = molecular target: T1, human A3ARs; assay: Dissociation kinetics of [125I]I-AB-MECA from human A3ARs (allosteric effect); details: 10 μM test compound; binding after 1.5 or 2 hours of dissociation, control without modulator set at 100%; brackets = result of each of two assays; read-out: hA3ARAg Dissociation at 10 μM
Description: as §1
The dissociation of [^125I]I-AB-MECA was measured as follows. Membranes (20 μg) were pre-incubated at 25° C. with 0.5 nM [^125I]I-AB-MECA, in a total volume of 100 μl of Tris-HCl buffer (50 mM, pH 8.0) containing 10 mM MgCl2, and 1 mM EDTA for 60 min. The dissociation was then initiated by the addition of 3 μM Cl-IB-MECA with or without allosteric modulators. The time course of dissociation of total binding was measured by rapid filtration at appropriate time intervals. Nonspecific binding was measured after 60-min incubation in the presence of 3 μM Cl-IB-MECA. Further assay was as described above.

| SMILES | inhibition at 10 µM (human A3ARs [1]) [%] | activity at 10 µM (human A3ARs [2]) [%] |
| --- | --- | --- |
| O=C(Nc1cc(Nc2ccc(Cl)c(Cl)c2)nc2ccccc12)c1ccccc1 [Compound 30, N-{2-[(3,4-dichloro-phenyl)amino]quinolin-4-yl}benzamide] | 37 | 112 |
| Cc1ccc(Nc2cc(NC(=O)C3CCCCC3)c3ccccc3n2)cc1 [Compound 27, N-{2-[(4-methylphenyl)amino]quinolin-4-yl}cyclohexanecarboxamide] | 64 | 220 |
| COc1ccc(Nc2cc(NC(=O)C3CCCC3)c3ccccc3n2)cc1 [Compound 21, N-{2-[(4-methoxyphenyl)amino]quinolin-4-yl}cyclopentanecarboxamide] | 35 | 134 |
| O=C(Nc1cc(Nc2ccc(Cl)c(Cl)c2)nc2ccccc12)c1ccco1 [Compound 32, N-{2-[(3,4-dichlorophenyl)amino]quinolin-4-yl}-2-furamide] | 13 | 96 |
| Cc1ccc(Nc2cc(NC(=O)C3CCCC3)c3ccccc3n2)cc1 [Compound 19, N-{2-[(4-methylphenyl)amino]quinolin-4-yl}cyclopentanecarboxamide] | 63 | 165 |
| O=C(Nc1cc(Nc2ccccc2)nc2ccccc12)C1CCC1 [Compound 33, N-(2-anilinoquinolin-4-yl)cyclobutanecarboxamide] | 66 | 119 |
| O=C(Nc1cc(Nc2ccc3c(c2)CCC3)nc2ccccc12)C1CCCCC1 [Compound 28, N-[2-(2,3-dihydro-1H-inden-5-ylamino)quinolin-4-yl]cyclohexanecarboxamide] | < 50 |  |
| O=C(Nc1cc(NCc2ccccc2)nc2ccccc12)C1CCCC1 [Compound 18, N-[2-(benzylamino)quinolin-4-yl]cyclopentanecarboxamide] | 28 | 107 |
| O=C(Nc1cc(Nc2ccccc2)nc2ccccc12)C1CCCC1 [Compound 16, N-(2-anilinoquinolin-4-yl)cyclopentanecarboxamide] | 61 | 145 |
| O=C(Nc1cc(Nc2ccc(Cl)c(Cl)c2)nc2ccccc12)C1CCC1 [Compound 34, N-{2-[(3,4-dichlorophenyl)amino]quinolin-4-yl}cyclobutanecarboxamide] | 51 | 149 |
| O=C(Nc1cc(NC2CCCC2)nc2ccccc12)C1CCCC1 [Compound 23, N-[2-(cyclopentylamino)quinolin-4-yl]cyclopentanecarboxamide] | 14 | 114 |
| O=C(Nc1cc(Nc2ccc(Cl)c(Cl)c2)nc2ccccc12)C1CCCCC1 [Compound 26, N-{2-[(3,4-dichlorophenyl)amino]quinolin-4-yl}cyclohexanecarboxamide] |  | ≤ 249 |
| O=C(Nc1cc(Nc2ccccc2)nc2ccccc12)c1ccco1 [Compound 31, N-(2-anilinoquinolin-4-yl)-2-furamide] | 60 | 100 |
| O=C(Nc1cc(Nc2ccc(Cl)c(Cl)c2)nc2ccccc12)C1CCCC1 [Compound 17, N-{2-[(3,4-dichlorophenyl)amino]quinolin-4-yl}cyclopentanecarboxamide] | 50 | 169 |
| O=C(Nc1cc(Nc2ccc3cn[nH]c3c2)nc2ccccc12)C1CCCC1 [Compound 24, N-[2-(1H-indazol-6-ylamino)quinolin-4-yl]cyclopentanecarboxamide] | 90 | 102 |
| O=C(Nc1cc(Nc2ccccc2)nc2ccccc12)c1ccccc1 [Compound 29, N-(2-anilinoquinolin-4-yl)benzamide] | 76 | 100 |
| O=C(Nc1cc(Nc2ccc3c(c2)CCC3)nc2ccccc12)C1CCCC1 [Compound 20, N-[2-(2,3-dihydro-1H-inden-5-ylamino)quinolin-4-yl]cyclopentanecarboxamide] | 62 | 147 |
